In experiment [1] the target is T1, D2i3 (third intracellular loop of the long isoform of human D2DR) (Homo sapiens, UniProt P14416).
T1 construct: A long isoform of D2i3 (amino acid 212-373) was amplified from a human D2DR cDNA clone; made in house; host or cells: E. coli BL21
T1 sequence (P14416 212-241): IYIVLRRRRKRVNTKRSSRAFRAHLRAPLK
The experiment in a line: In vitro binding assay with purified GST-D2i3 and Par-4LZ proteins. The following applies: in the presence of Ca2+. The procedure: (§1) pPC97-D2i3 and pPC86-Par-4LZ plasmids were digested with SalI and NotI and cloned into pGEX4T-2 (Amersham-Pharmacia) using the same restriction sites to make GST-D2i3 and GST-Par-4LZ fusion proteins, respectively. GST-fusion proteins were expressed in BL21 bacteria and purified following manufacturer's instruction. For the in vitro binding assay, 500 nmoles of GST-Par-4LZ fusion protein in PBS was digested with 0.2 NIH units of thrombin (Sigma) for 2 hours at room temperature and the reaction was stopped by adding PMSF (10 μM, Sigma) and incubated for an additional 1 hour at 4° C. The GST portion of the digested protein was removed by glutathione sepharose (Amersham-Pharmacia). The supernatant was equilibrated to final 1× binding buffer (200 mM NaCl, 0.2% Triton X-100, 0.2mg/ml BSA and 50 mM Tris, pH 7.5). Binding reaction was initiated by adding 500 nmoles of GST-D2i3 (50 nM of GST-D2i3^221-241 in the competition assay) to Par-4LZ protein in the 1× binding buffer and incubated for 2-3 hours at 4° C. GST-D2i3 was precipitated using 100 μl of 10% glutathione sepharose in 1× binding buffer. The precipitate was washed 3 times with 1× binding buffer and resuspended in 2× SDS sample loading buffer.

Experiment [2] concerns dopamine-mediated cAMP signaling. The experiment in a line: cAMP accumulation in cultured primary striatal neurons from wild type and Par-4ΔLZ embryos (cAMP EIA). The format is cell-based, mouse. The following applies: for upregulation of cAMP signaling comparable to that with dopamine: Par-4ΔLZ striatal neurons. Here is the method:
DIV 11-14 neurons cultured in 24 well-plates were replaced with neurobasal media supplemented with 10 mM HEPES (pH7.4) containing drugs indicated for 50 min at room temperature, cells were lysed in 200 μl of 0.1M HCl solution for 15 min with gentle shaking and spun in the microcentrifuge tubes. cAMP concentration of the supernatant was measured using the cAMP-Enzyme Immunoassay Kit (Assay Designs) following manufacture's instructions. Concentrations of cAMP were normalized using protein concentrations measured by Biorad Protein Assay System (Bio-rad).
For orientation: Cyclic AMP is a second messenger, typically raised through Gs and lowered through Gi signalling.

Experiment [3] concerns CREB S133 phosphorylation. The procedure: The cells were mechanically dissociated by triturating with a fine polished glass pipette, diluted in Neurobasal media (Invitrogen) supplemented with 10% horse serum and 10 mM HEPES (pH7.2), and plated in a dish coated with poly-D-lysine (Sigma) and laminin (Sigma). Cultured DIV12-13 mouse neurons were lysed for 30 min at 4° C. with gentle shaking in the extraction buffer (50 mM Tris pH8.0, 50 mM NaCl, 1.0% NP-40, 0.5% sodium deoxycholate, 0.1% SDS, 1 mM EDTA, 1 mM EGTA, 1 mM NaF, 20 mM Na4P2O7, 2 mM Na3VO4, 10% glycerol) supplemented with protease inhibitor cocktail (Sigma). Cell lysates were centrifuged for 15 min at 12,000 g at 4° C. and the supernatants were applied to ELISA using the Immunoassay kits for total CREB and […] phospho-CREB (Biosource) following the manufacturer's instruction.

The next experiment has as its system Par-4/D2DR association. The experiment is described as follows: Co-immunoprecipitation of Par-4 with D2DR-EGFP in the stable D2DR-EGFP cell line. The format is cell-based, human.
Experiment [4] relates to Par-4 nuclear translocation. The experiment is described as follows: Par-4 nuclear translocation in cultured striatal neurons. The following applies: activation of glutamate receptors. The format is cell-based.
Experiment [5] deals with GST-D2i3 (GST fusion of the third intracellular loop of the long isoform of human D2DR, amino acid residues 212-373) (human). The experiment in a line: in vitro GST pull-down with purified proteins.
For experiment [6], the target named is T2, D2i3 (third intracellular loop of the long isoform of human D2DR) (Homo sapiens, UniProt P14416).
T2 construct: A long isoform of D2i3 (amino acid 212-373) was amplified from a human D2DR cDNA clone; made in house; host or cells: E. coli BL21
T2 sequence (P14416 212-373): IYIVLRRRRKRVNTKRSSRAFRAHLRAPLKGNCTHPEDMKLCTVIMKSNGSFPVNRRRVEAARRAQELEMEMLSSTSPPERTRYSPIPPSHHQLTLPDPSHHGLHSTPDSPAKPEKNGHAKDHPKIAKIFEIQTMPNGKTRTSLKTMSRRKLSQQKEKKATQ
The experiment is described as follows: In vitro binding assay with purified GST-D2i3 and Par-4LZ proteins. The following applies: equimolar amount of GST-D2i3 protein. The procedure: as §1

As for calmodulin, the “interaction of Par-4LZ with D2i3 in the presence of increasing calmodulin levels” value in experiment [1] is “effectively interfered”.
For the molecule `NCCc1ccc(O)c(O)c1` [dopamine], the cAMP levels result in experiment [2] (Par-4ΔLZ mutant neurons, 1-10 μM of dopamine) was “markedly elevated”. For the same molecule, the “dopamine-induced downregulation of CREB S133 phosphorylation” value in experiment [3] (Par-4ΔLZ neurons) is “not observed”. Besides, the “CREB S133 phosphorylation” value in experiment [3] (wild type neurons, dose-dependent) is “significantly decreased”.
For `CCN1CCCC1CNC(=O)c1cc(S(N)(=O)=O)ccc1OC` (stereo not shown) [sulpiride], the “cAMP response to dopamine” value was “no such effect” in experiment [2] (Par-4ΔLZ neurons, co-treated with dopamine) and “enhanced” in experiment [2] (wild type neurons, co-treated with 1-10 μM dopamine).
Consider `NC[C@H](O)c1ccc(O)c(O)c1` [norepinephrine], for which the “upregulation of cAMP signaling comparable to that with dopamine” value in experiment [2] was “not detected”.
Still for that read-out and setting: the same measure for `NCCc1c[nH]c2ccc(O)cc12` [serotonin]: “not detected”.
As to `C/C=C(/C)C(=O)O[C@H]1C(C)=C2[C@H]([C@@H]1OC(=O)CCCCCCC)[C@@](C)(OC(C)=O)C[C@H](OC(=O)CCC)[C@@]1(O)[C@H]2OC(=O)[C@@]1(C)O` [thapsigargin], the “co-immunoprecipitation of Par-4 with D2DR-EGFP” value in the experiment on Par-4/D2DR association is reported as “significantly reduced”.
On to `N[C@@H](CCC(=O)O)C(=O)O` [glutamate], for which the “nuclear translocation of Par-4” value in experiment [4] is “induce nuclear translocation”.
For `C[C@H](CCC(=O)O)C[C@H](C)C[C@H](C)C(=O)/C=C(\O)[C@H](C)C[C@H](C)C/C=C/[C@@H](C)[C@@H](O)[C@@H](C)[C@@H](O)C[C@@H]1CC[C@@](C)([C@H]2CC[C@@](C)([C@@H](C)O)O2)O1` [ionomycin], the “co-immunoprecipitation of Par-4 with D2DR-EGFP” value in the experiment with Par-4/D2DR association was “significantly reduced”.
Turning to “Par-4LZ protein (purified; human Par-4 amino acid residues 245-342, leucine zipper domain)”, the percent of total protein pulled down in experiment [5] was 50%.

B1: Par-4LZ: human Par-4 amino acid residues 245-342 that harbor the leucine zipper domain (protein)
chain: DRSGFPRYNRDANVSGTLVSSSTLEKKIEDLEKEVVRERQENLRLVRLMQDKEEMIGKLKEEIDLLNRDLDDIEDENEQLKQENKTLLKVVGQLTR
On to B1, for which the “fraction of total Par-4LZ protein pulled down by GST-D2i3” value in experiment [6] is “Approximately 50%”.

These data come from patent publication US20090111733A1, “PAR-4 RELATED METHODS AND COMPOSITIONS” (President and Fellows of Harvard College, priority 2006, published 2009).
